Measurements taken from patent publication US10538516B2, “Oxadiazole derivative and pharmaceutical containing same” (National Center for Geriatrics and Gerontology, priority 2015, dated 2020).
Where two headings read alike, the source gives them in different places.

Target: T1, GAβ-dependent amyloid fibril formation (Human Aβ1-40 + GM1-containing liposome) (Homo sapiens, UniProt P05067)
T1 construct: Human Aβ1-40 (cat. #4307-v, prepared by Peptide Institute); purchased Peptide Institute 4307-v
Assay: Thioflavin T (ThT) assay of GAβ-dependent amyloid fibril formation (Aβ1-40 with GM1-containing liposome)
Assay type: biochemical
Experimental: <3. Evaluation of the Compounds Based on the Inhibitory Activity Against Amyloid Fibril Formation in Thioflabin T (ThT) Assay>
Inhibitory activity against GAβ-dependent amyloid fibril formation of the above compounds 1 to 133 and 142 to 267 were evaluated in ThT assay.
(1) Preparation of Aβ Solution
Human Aβ1-40 (cat. #4307-v, prepared by Peptide Institute) was dissolved in a 0.02% ammonia solution (400 μM), and the mixture was treated in an ultracentrifuge (S110AT rotor, Hitachi) at 100,000 rpm for 3 hours. Approximately two-thirds of the upper layer of the supernatant was recovered and protein concentration was measured. The Aβ solution was aliquoted and stored at −80° C. until use, was melted immediately before use, and was diluted to 75 μM using phosphate buffer (PBS: cat. #10010, manufactured by Life Technologies).
(2) Preparation of GM1-Containing Liposome
Using a mixed solution of chloroform/methanol (1:1) as a solvent, a mixed solution of 100 mM each of cholesterol and sphingomyelin (both manufactured by Sigma-Aldrich) was prepared. To this mixed solution, GM 1 (cat. #1061, manufactured by Matreya Co.) was dissolved to make a solution of 50 mM concentration. This lipid mixed solution was aliquoted into glass test tubes and stored at −20° C. until use, was melted before use, was mixed with chloroform/methanol mixture (1:1) and mixed, and then the solvent was removed by applying nitrogen gas to the suspension. The dried lipid mixture was resuspended in PBS to be a GM1 concentration of 2.5 mM, and frozen and thawed 5 times with liquid nitrogen. The lipid suspension was centrifuged at 15,000 rpm for 10 minutes and the precipitate was resuspended in PBS to be a GM1 concentration of 2.5 mM. Using an ultrasonic crusher (XL-2000, MISONIX Co., Ltd.) equipped with a microchip, ultrasonic treatment was repeated on ice for 10 seconds until the suspension became transparent, and GM1-containing liposome was prepared. Immediately prior to use, PBS was added and diluted to a GM 1 concentration of 75 μM.
(3) Preparation of Compound Solution
Compounds 1 to 133 and 142 to 267 were prepared as 10 mM and 2 mM solution in DMSO, respectively. And each solution was diluted to 75 μM or 15 μM with PBS immediately prior to use.
(4) GAβ-Dependent Amyloid Fibril Formation
To a 96-well microplate, 5 μl each of the 75 μM Aβ solution prepared above (1), the compound solution prepared in (3) or 0.75% DMSO was mixed and incubated at room temperature for 10 minutes. Then, 5 μl each of 750 μM GM1-containing liposome prepared in (2) was added to each well and incubated at 37° C. for 18 hours.
ThT (manufactured by Sigma-Aldrich) was adjusted to 5 μM using 50 mM glycine-NaOH buffer (pH 8.5). Immediately before measurement, 10 μl from each well of (4) was transferred to a 96-well black plate. 50 μl of 5 μM ThT solution was added from each injector to each well using a multi-plate reader (ARVO-HTS, manufactured by Perkin Elmer), and then the optimal fluorescence of ThT bound to amyloid fiber (excitation wavelength 430 nm, fluorescence wavelength 490 nm) was measured.
The fluorescence intensity of ThT indicates the degree of amyloid fibrils formation. By calculating the ratio of the ThT fluorescence intensity between addition of the compound and without addition of the compound, the inhibition rate against amyloid fibril formation by the compound was calculated.

[1] = inhibition rate against amyloid fibril formation, final concentration of the compound 25 μM, read-out: Inhibitory activity ABC evaluation
[2] = @25 μM, read-out: ThT Inhibitory activity (% inhibition)

T1 sequence (P05067 672-711 limits assumed): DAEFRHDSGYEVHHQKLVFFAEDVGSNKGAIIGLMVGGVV

Row | inhibition at 25 µM [1] [%] | SMILES | also measured
1 | 40 to 80 | O=C(c1ccc(Cl)cc1)N1CC(O)CC1c1nc(-c2ccc(OC(F)(F)F)cc2)no1 (stereo in doubt) [Compound 85, (4-chlorophenyl) ((2S,4S)-4-hydroxy-2-[3-{4-(trifluoromethoxy)phenyl}-1,2,4-oxadiazol-5-yl]pyrrolidin-1-yl)methanone] | –
2 | – | O=C(NC(CO)c1nc(-c2ccc(C(F)(F)F)cc2)no1)c1ccc(F)cc1 (stereo in doubt) [Compound 152, 4-fluoro-N-[(1R)-2-hydroxy-1-{3-[4-(trifluoromethyl)phenyl]-1,2,4-oxa-diazol-5-yl}ethyl] benzamide] | Inhibitory activity ABC evaluation (inhibition rate against amyloid fibril formation, final concentration of the compound 25 μM, 25 µM): B (40% or more and less than 80% were evaluated as B)
3 | 40 to 80 | CCCN(C(=O)CCc1nc(-c2ccc(OC)cc2)no1)c1cncc(Cl)c1 [Compound 5, N-(5-chloropyridin-3-yl)-3-{3-(4-methoxyphenyl)-1,2,4-oxadiazol-5-yl}-N-propylpropanamide] | –
4 | 40 to 80 | CCN(C(=O)CCc1nc(-c2ccc(OC)cc2)no1)c1cccc(Cl)c1 [Compound 7, N-(3-chlorophenyl)-N-ethyl-3-{3-(4-methoxyphenyl)-1,2,4-oxadiazol-5-yl}propanamide] | –
5 | < 40 | COc1ccc(-c2noc(CCC(=O)Nc3cccc(Cl)c3)n2)cc1 [Compound 8, N-(3-chlorophenyl)-3-{3-(4-methoxyphenyl)-1,2,4-oxadiazol-5-yl}propanamide] | –
6 | 40 to 80 | CCCN(Cc1cccc(Cl)c1)C(=O)CCc1nc(-c2ccc(OC)cc2)no1 [Compound 9, N-(3-chlorobenzyl)-3-{3-(4-methoxyphenyl)-1,2,4-oxadiazol-5-yl}-N-propylpropanamide] | –
7 | 40 to 80 | CN(C(=O)CCc1nc(-c2ccc(OC(F)(F)F)cc2)no1)c1cccc(Cl)c1 [Compound 11, N-(3-chlorophenyl)-N-methyl-3-[3-{4-(trifluoromethoxy)phenyl}-1,2,4-oxadiazol-5-yl]propanamide] | –
8 | 40 to 80 | O=C(CCc1nc(-c2ccc(OC(F)(F)F)cc2)no1)N1CCCc2ccccc21 [Compound 12, 1-{3,4-dihydroquinolin-1(2H)-yl}-3-[3-{4-(trifluoromethoxy)phenyl}-1,2,4-oxadiazol-5-yl]propan-1-one] | –
9 | 40 to 80 | CN(C(=O)CCc1nc(-c2ccc(O)cc2)no1)c1cccc(Cl)c1 [Compound 13, N-(3-chloropbenyl)-3-{3-(4-hydroxyphenyl)-1,2,4-oxadiazol-5-yl}-N-methylpropanamide] | –
10 | < 40 | CN(Cc1cccc(F)c1)C(=O)CCc1nc(-c2ccc(O)cc2)no1 [Compound 14, N-(3-fluorobenzyl)-3-{3-(4-hydroxyphenyl)-1,2,4-oxadiazol-5-yl}-N-methylpropanamide] | –
11 | < 40 | CN(Cc1ccccc1)C(=O)CCc1nc(-c2ccc3c(c2)OCCO3)no1 [Compound 16, N-benzyl-3-{3-(2,3-dihydrobenzo[b][1,4]dioxin-6-yl)-1,2,4-oxadiazol-5-yl}-N-methylpropanamide] | –
12 | 40 to 80 | O=C(CCc1nc(-c2ccc3c(c2)OCCO3)no1)N1CCc2ccccc2C1 [Compound 17, 3-{3-(2,3-dihydrobenzo[b][1,4]dioxin-6-yl)-1,2,4-oxadiazol-5-yl}-1-{3,4-dihydroisoquinolin-2(1H)-yl}propan-1-one] | –
13 | 40 to 80 | CCCN(C(=O)CCc1nc(-c2ccc(O)cc2)no1)c1cccc(Cl)c1 [Compound 19, N-(3-chlorophenyl)-3-{3-(4-hydroxyphenyl)-1,2,4-oxadiazol-5-yl}-N-propylpropanamide] | –
14 | 40 to 80 | CC(C)(NC(=O)c1ccc(Cl)cc1)c1nc(-c2ccc(OC(F)(F)F)cc2)no1 [Compound 20, 4-chloro-N-(2-[3-{4-(trifluoromethoxy)phenyl}-1,2,4-oxadiazol-5-yl]propan-2-yl)benzamide] | –
15 | < 40 | CN(C(=O)c1ccc(Cl)cc1)C(C)(C)c1nc(-c2ccc(OC(F)(F)F)cc2)no1 [Compound 21, 4-chloro-N-methyl-N-(2-{3-[4-(trifluoromethoxy)phenyl]-1,2,4-oxadiazole-5-yl}propan-2-yl)benzamide] | –
16 | < 40 | COc1ccc(-c2noc(C(C)(C)N(C)C(=O)c3ccc(Cl)cc3)n2)cc1 [Compound 22, 4-chloro-N-[2-{3-(4-methoxyphenyl)-1,2,4-oxadiazol-5-yl}propan-2-yl]-N-methyl-benzamide] | –
17 | 40 to 80 | O=C1CC(c2nc(-c3ccc(OC(F)(F)F)cc3)no2)CN1c1ccc(Cl)cc1 (stereo not drawn) [Compound 23, l-(4-chlorophenyl)-4-[3-{4-(trifluoromethoxy)phenyl}-1,2,4-oxadiazol-5-yl]pyrrolidin-2-one] | –
18 | 40 to 80 | COc1ccc(-c2noc(C3CC(=O)N(c4ccc(Cl)cc4)C3)n2)cc1 (stereo not shown) [Compound 24, 1-(4-chlorophenyl)-4-{3-(4-methoxyphenyl)-1,2,4-oxadiazol-5-yl}pyrrolidin-2-one] | –
19 | 40 to 80 | O=C1CC(c2nc(-c3ccc(OC(F)(F)F)cc3)no2)CN1c1ccc(F)cc1 (stereo not drawn) [Compound 26, l-(4-fluorophenyl)-4-[3-{4-(trifluoro-methoxy)phenyl}-1,2,4-oxadiazol-5-yl]pyrrolidin-2-one] | –
20 | 40 to 80 | O=C1CC(c2nc(-c3ccc(OC(F)(F)F)cc3)no2)CN1c1cccc(Cl)c1 (stereo not shown) [Compound 27, 1-(3-chlorophenyl)-4-{3-[4-(trifluoromethoxy)phenyl]-1,2,4-oxadiazole-5-yl}pyrrolidin-2-one] | –
21 | 40 to 80 | O=C1CC(c2nc(-c3ccc(OC(F)(F)F)cc3)no2)CN1c1ccc(Cl)cc1F (stereo not shown) [Compound 28, 1-(4-chloro-2-fluorophenyl)-4-[3-{4-(trifluoromethoxy)phenyl}-1,2,4-oxadiazol-5-yl]pyrrolidin-2-one] | –
22 | < 40 | O=C(NC1(c2nc(-c3ccc(OC(F)(F)F)cc3)no2)CCCC1)c1ccc(Cl)cc1 [Compound 29, 4-chloro-N-(1-[3-{4-(trifluoromethoxy)phenyl}-1,2,4-oxadiazol-5-yl]cyclopentyl) benzamide] | –
23 | < 40 | O=C(NC1(c2nc(-c3ccc(OC(F)(F)F)cc3)no2)CCCC1)c1ccc(F)cc1 [Compound 30, 4-fluoro-N-(1-[3-{4-(trifluoromethoxy)phenyl}-1,2,4-oxadiazol-5-yl]cyclopentyl) benzamide] | –
24 | < 40 | O=C(NC1(c2nc(-c3ccc(OC(F)(F)F)cc3)no2)CCCC1)c1ccc(Cl)nc1 [Compound 31, 6-chloro-N-(1-[3-{4-(trifluoromethoxy)phenyl}-1,2,4-oxadiazol-5-yl]cyclopentyl) nicotinamide] | –
25 | > 80 | O=C1CC(c2nc(-c3ccc4c(c3)OC(F)(F)O4)no2)CN1c1ccc(Cl)cc1 (stereo not shown) [Compound 32, 1-(4-chlorophenyl)-4-{3-(2,2-difluoro-benzo[d][1,3]dioxol-5-yl)-1,2,4-oxadiazol-5-yl}pyrrolidin-2-one] | inhibition at 5 µM (@5 μM, read-out: ThT Inhibitory activity (% inhibition)): 43%; inhibition at 25 µM [2]: 86%
26 | 40 to 80 | O=C1CC(c2nc(-c3cccc(OC(F)(F)F)c3)no2)CN1c1ccc(Cl)cc1 (stereo not shown) [Compound 33] | –

Row | SMILES | inhibition at 25 µM [1] [%] | also measured
27 | COc1ccc(-c2noc([C@@H](N)Cc3c[nH]c4ccccc34)n2)cc1 [Compound 18, (S)-2-(1H-indol-3-yl)-1-{3-(4-methoxyphenyl)-1,2,4-oxadiazol-5-yl}ethan-1-amine] | > 80 | inhibition at 25 µM [2]: 86%
28 | N[C@@H](Cc1c[nH]c2ccccc12)c1nc(-c2ccc(OC(F)(F)F)cc2)no1 [Compound 25, (S)-2-(1H-indole-3-yl)-1-[3-(4-trifluoromethoxyphenyl)-1,2,4-oxadiazole-5-yl]ethane-1-amine] | > 80 | –
